# Results taken from patent US6486350B1, “Biological reagents and methods for determining the mechanism in the generation of β-amyloid peptide” (Elan Pharmaceuticals Inc., priority 1998, dated 2002).
# What was measured:
# [1] = system: Aβ production in 293 cells; assay: Inhibition of Aβ production in 293 cells; type: cell-based; details: Homo sapiens, HEK293, whole cell
# [2] = system: high affinity Compound 1 (Aβ lowering) site on SWE293 cells; assay: Flow cytometry labelling of SWE293 cells with Compound 3; type: cell-based
# Description: SWE293 cells were successfully labelled with 5 nM of Compound 3 for flow cytometry analysis (excitation 488 nm, emission 510 (+/−10) nm) to give a four fold increase in fluorescence intensity over background unlabeled cells, consistent with the binding site being in relatively low abundance. At 5 nM concentration this compound only labels the high affinity Compound 1 (Aβ lowering) site. In the presence of 1 μM 5-(S)-[N′-((S)-3,5-Difluorophenyl-α-hydroxyacetyl)-L-alaninyl]amino-7-methyl-5,7-dihydro-6H-dibenz[b,d]azepin-6-one (Example 29), (which is sufficient to completely displace all specifically bound Compound of Example 28 at >>5 nM)), the signal was reduced by 20% (p<0.001), after background subtraction. Compound 3 is obviously a very hydrophobic molecule (log P>3), and the non displaceable signal is almost certainly due to non-specific partitioning into cell membranes.
# [3] = system: low affinity Compound 1 site, membranes obtained from 293 cells; assay: Competition with 3H-Compound 1 binding to membranes from 293 cells, low affinity site; details: 293 cell membranes, n=2
# Description: (§1) The compound of Example 28 (Compound 3) was also tested. The high affinity ^3H-N-[8-N′-((2-(R/S)-hydroxy-2-(3,5-difluorophenyl)-acetyl-L-alaninyl)-L-phenylglycine)-3,6-dioxaoctyl]-4,4-difluoro-5,7-dimethyl-4-bora-3α,4α-diaza-s-indacene-3-propionamide (Compound 3) binding site mediates the Aβ lowering activity of Compound 1, whereas the low affinity site is irrelevant to Aβ lowering. […] This wide separation in high and low affinity Ki's (7741.5; n=2) affords a wide window of concentrations of Compound 3 where binding of the compound is almost exclusively to the high affinity Compound 1 site.
# log P = type: physicochemical
# [4] = target: low affinity Compound 1 site in 293 membranes; assay: Saturation binding of 3H-Compound 1 in 293 membranes, low affinity site; details: 0-150 nM 3H-Compound 1, 293 membranes, read-out: KD2
# Description: (§2) The pharmacological profile of ^3H-5-(S)-(N′-((S)-(+)-2-Hydroxy-3-methylbutyryl)-L-alaninyl)amino-7-methyl-5,7-dihydro-6H-dibenz[b,d]azepin-6-one (Compound 1 from Example 30) has been studied in 293 membranes. There are two distinct binding components in the membrane preparations. Saturation binding analysis utilizing 0-50 pM and 0-150 nM ^3H-Compound 1 reveal two sites (KD1=52.7 pM [Bmax1=710 fmol/mg protein]; KD2=32.5 nM [Bmax2=34.4 pmol/mg protein]).
# as §1
# [5] = target: high affinity Compound 1 binding site (Aβ lowering) in 293 membranes (Homo sapiens, UniProt P49768); assay: Saturation binding of 3H-Compound 1 in 293 membranes, high affinity site
# Description: as §2, §1
structure (smiles),measurement,setting,value
"Cc1cc(C)n2c1C=C1C=CC(CCC(=O)NCCOCCOCCNC(=O)C(NC(=O)C(C)NC(=O)C(O)c3cc(F)cc(F)c3)c3ccccc3)=[N+]1[B-]2(F)F (racemic) [Compound 3, N-[8-N′-((2-(R/S)-hydroxy-2-(3,5-difluorophenyl)-acetyl-L-alaninyl)-L-phenylglycinyl)amino-3,6-dioxaoctyl]-4,4-difluoro-5,7-dimethyl-4-bora-3α,4α-diaza-s-indacene-3-propionamide]",IC50,[1],0.000585 µM
same,increase in fluorescence intensity over background unlabeled cells,"[2]; SWE293 cells labelled with 5 nM, flow cytometry, excitation 488 nm, emission 510 (+/−10) nm",four fold
same,Ki,[3],0.574 µM
same,logP,log P,> 3
"CC(C)[C@H](O)C(=O)N[C@@H](C)C(=O)NC1C(=O)N(C)c2ccccc2-c2ccccc21 (stereo partly drawn) [Compound 1, 5-(S)-(N′-((S)-(+)-2-Hydroxy-3-methylbutyryl)-L-alaninyl)amino-7-methyl-5,7-dihydro-6H-dibenz[b,d]azepin-6-one]",Kd,[4],0.0325 µM
same,Bmax1,[5],710 fmol/mg protein
"C[C@H](NC(=O)[C@@H](O)c1cc(F)cc(F)c1)C(=O)N[C@@H]1C(=O)N(C)c2ccccc2-c2ccccc21 [Example 29, 5-(S)-[N′-((S)-3,5-Difluorophenyl-α-hydroxyacetyl)-L-alaninyl]amino-7-methyl-5,7-dihydro-6H-dibenz[b,d]azepin-6-one]",reduction of Compound 3 fluorescence signal,"[2]; 1 μM competitor, SWE293 cells labelled with 5 nM Compound 3, after background subtraction, p<0.001",20%
